Experimental data from PMC10630888, “Nuclear ERK1/2 signaling potentiation enhances neuroprotection and cognition via Importinα1/KPNA2” (EMBO Molecular Medicine, 2023).
Values joined by “and” are separate entries in the source; they are usually repeats but may differ in a detail not shown here. Equal values may be shown once.

Key:
[1] = tested on: SC-CA1 synapses, CA1 pyramidal neurons; test: Whole-cell patch clamp, EPSCs at SC-CA1 synapses in hippocampal slices; format: cell-based, rat; conditions: peptide 50 μM in intracellular solution, 30–35 min, mean, RB5 n = 12 cells, Scr n = 8 cells, 4 animals
[2] = tested on: pERK; test: pERK in striatum of HdhQ111/+ mice treated with RB5; format: in vivo, mouse; conditions: for pERK in striatum (Fig 5 panel d): individual animals
Method: (§1) Immunohistochemistry was performed as described in Papale et al ([2016]). Briefly, 1 h after blocking in 5% normal goat serum and 0.1% Triton X‐100 solution, free‐floating sections were incubated overnight at 4°C with one of the following primary antibodies: anti‐phospho‐p44/42 MAP kinase (Thr202/Tyr204) (1:200, Cell Signaling Technology #9101), anti‐phospho–Elk‐1 (Ser383) (1:100, Cell Signaling #9181), anti‐phospho‐Kv4.2 (Thr607)‐R (1:100, Santa Cruz sc22254‐R), anti‐phospho‐MSK‐1 (1:100 Cell Signaling Technology #9595), anti‐phospho‐MEK1/2 (Ser218/222) (1:100, sc‐7995 Santa Cruz Biotechnology), c‐Fos (1:100, sc‐52 Santa Cruz Biotechnology), tyrosine Hydroxylase (monoclonal 1:1,000, Sigma Aldrich, Italy) and anti‐DARPP‐32 (H3) (1:100, Santa Cruz Biotechnology, #sc‐271111) overnight at 4°C. Sections were then incubated with biotinylated goat anti‐rabbit IgG (1:200, Vector Laboratories) or biotinylated goat anti‐mouse (1:200, Vector Laboratories) for 2 h. The classic avidin‐peroxidase complex (ABC, Vector, UK) protocol was applied, using 3,3′‐diaminobenzidine (DAB, Sigma) as a chromogen.
For in vivo immunohistochemistry experiments, images were acquired from the dorsal striatum using a Leica DM IRB microscope under a 20× objective. The number of p‐ERK, p‐MSK‐1, p‐ELK, p‐MEK‐1, p‐VG K+, c‐Fos, and DARPP‐32 positive cells was counted in 2–3 consecutive sections per mouse, bilaterally and averaged across the sections using the ImageJ software by a blind investigator to the condition. Estimation of nigral cell loss was assessed by quantifying the number of TH‐immunopositive neurons of the SNc in 360 μm‐spaced sections for each animal.

[3] = tested on: ERK phosphorylation (pERK); test: pERK dose-response in acute striatal slices (ex vivo); format: cell-based, mouse; conditions: fresh acute striatal slices from adult mice, RB5 0.5–100 μM, 1 h at 32°C; GraphPad Prism; n = 8–12 slices per group; read-out: EC50 of pERK enhancement (ERK activation)
Method: Adult C57Bl/6 mice were decapitated after cervical dislocation and brain slices were freshly prepared as previously described in Orellana et al ([2012]) and Papale et al ([2016]). Briefly, the brains were rapidly removed from the skull, submerged in ice‐cold sucrose‐based dissecting solution, and sliced into 200 μm‐thick slices using a vibratome. […] After a rapid fixation in 4% PFA, slices were rinsed and cryoprotected overnight at 4°C in 30% sucrose solution. On the following day, slices were cut into 18 μm‐thick slices using a cryostat (Leica CM1850), mounted onto SuperFrost Plus slides (Thermo Scientific) and stored at −20°C until processing for immunohistochemistry or immunofluorescence.
Immunohistochemistry was performed as described in Papale et al ([2016]). […]
For ex‐vivo immunohistochemistry experiments, images were acquired from the dorsal striatum using a bright‐field microscope (Macro/Micro Imaging System, Leica) under a 40× magnification. Neuronal quantification was performed with ImageJ software by counting the number of phospho‐ERK positive cells in two sections for each sample in three fields per section. […] The EC50 for pERK was calculated using GraphPad Prism software.

[4] = tested on: pAcH3; test: Striatal pAcH3 immunofluorescence 1 h after single injection; format: in vivo, mouse; conditions: single injection 20 mg/kg i.p., individual mice
Method: Immunofluorescence was performed as described in Papale et al ([2016]). Briefly, 1 h after blocking in 5% normal goat serum, slices were incubated overnight at 4°C with the following primary antibodies: anti‐phospho (Ser10)‐acetylated (Lys14) histone H3 (1:1,000, Millipore), anti‐phospho‐S6 ribosomal protein (Ser235/236) (1:200, Cell Signaling Technology) anti‐phospho‐S6 ribosomal protein (Ser240/244) (1:200, Cell Signaling), cleaved caspase‐3 (1:200, Cell Signaling Technology), anti‐mutant Huntingtin (1:100, Developmental Studies Hybridoma Bank, University of Iowa, #MW8), and NeuN (1:1,000, Millipore). Corresponding secondary antibodies (Alexa Fluor 546 conjugated anti‐mouse (1:200, Thermo Fisher Scientific), Alexa Fluor 488 conjugated anti‐rabbit (1:500, Thermo Fisher Scientific) and Pacific Blue goat anti‐mouse (1:200, Thermo Fisher Scientific) were incubated at room temperature for 1 h. Sections stained for mutant Huntingtin were incubated with DAPI for 20 min. Sections were subsequently mounted with fluorescent mounting medium (DAKO). Single and double‐labeled images ([…]) were obtained at 40× magnification from the striatum using a laser scanning confocal microscope (Leica SP2) equipped with the corresponding lasers and appropriate filter sets to avoid the crosstalk between the fluorochromes.
(§2) In ex‐vivo and in‐vivo immunofluorescence experiments, the number of p‐S6 or p‐AcH3 immunoreactive neurons among NeuN‐positive neurons was counted in 2–3 consecutive striatal sections per mouse in four fields per section. Caspase 3‐positive cells were quantified among NeuN‐positive neurons in each slide and expressed as percentage (ratio between caspase‐3‐positive cells and total NeuN‐positive neurons) for each field acquired through the slide. The number of cells showing mutant Huntingtin inclusions were expressed as a percentage of mutant Huntingtin‐positive cells among DAPI‐positive cells.

[5] = tested on: S6 (Ser240/244) phosphorylation; test: Striatal pS6 (Ser240/244) immunofluorescence 1 h after single injection; format: in vivo, mouse; conditions: single injection 20 mg/kg i.p., individual mice
Method: Immunofluorescence was performed as described in Papale et al ([2016]). Briefly, 1 h after blocking in 5% normal goat serum, slices were incubated overnight at 4°C with the following primary antibodies: anti‐phospho (Ser10)‐acetylated (Lys14) histone H3 (1:1,000, Millipore), anti‐phospho‐S6 ribosomal protein (Ser235/236) (1:200, Cell Signaling Technology) anti‐phospho‐S6 ribosomal protein (Ser240/244) (1:200, Cell Signaling), cleaved caspase‐3 (1:200, Cell Signaling Technology), anti‐mutant Huntingtin (1:100, Developmental Studies Hybridoma Bank, University of Iowa, #MW8), and NeuN (1:1,000, Millipore). […]
as §2

[6] = tested on: pERK in DG; test: pERK in dentate gyrus of Tg2576 mice; format: in vivo, mouse; conditions: for pERK in dentate gyrus (Fig 5 panel k): individual animals
Method: as §1
Tg2576 mice were administered with RB5 or Scramble (20 mg/kg i.p.) for either 7 days, for IHC analysis, or with a single injection (20 mg/kg i.p.), for behavioral analysis.

| Substance | Average EPSC amplitude over last 5 min of recording, normalized to first minute [1] | Average EPSC amplitude over last 5 min of recording, normalized to first minute ([1]; listed as Scr) | ERK activity (pERK) in striatum ([2]; 10 month-old HdhQ111/+ mice, 20 mg/kg i.p. for 8 days) | pERK in striatum (Fig 5 panel d) ([2]; HdhQ111/+ mice) | pERK in striatum (Fig 5 panel d) ([2]; WT mice) | EC50 [3] | pAcH3 positive neurons in striatum ([4]; ERK1+/+ (WT) mice) | pAcH3 positive neurons in striatum ([4]; ERK1-/- mice) | pAcH3 positive neurons in striatum ([4]; 1 h) | pS6 (Ser240/244) positive neurons in striatum [5] | ERK phosphorylation in dentate gyrus ([6]; Tg2576 mice, 7 months old, 20 mg/kg i.p. for 7 days) | pERK in dentate gyrus (Fig 5 panel k) ([6]; Tg2576 mice) | pERK in dentate gyrus (Fig 5 panel k) ([6]; WT mice) |
| --- | --- | --- | --- | --- | --- | --- | --- | --- | --- | --- | --- | --- | --- |
| SCR: ineffective Scramble version of RB5 containing a TAT sequence (GRKKRRQRRRPPRVGPGVPEGVGVAVFGVKEPGQTGDVGPVGE) [reference compound] | had no effect | 0.9389 |  |  |  |  |  |  |  |  |  |  |  |
| GRKKRRQRRRPPQGGGGGEPRRTEGVGPGVPGEVEMVKGQPFDV [RB5, six D-amino acids, acetylated N-terminus] |  |  | enhancing ERK activity | 485.6 and 573.909 and 510.978 and 613 and 540.374 and 579.569 and 517.606 and 519.5 and 515.6 | 416.7 and 470.92 and 371.49 and 542.1 and 453.63 and 361.4 and 405.17 and 381.6 | 3.4 µM | enhanced pERK and pAcH3 in WT | not in ERK1 KO mice | selectively activated | no effect | restored ERK phosphorylation | 11.21 and 6.88 and 9.13 and 7.17 and 10.84 and 11.62 and 10.66 and 8.7 | 8.18 and 9.67 and 8.87 and 7.48 and 10.41 and 9.92 and 13.01 |
